Where a name gives a salt, the structure may show the parent alone.
How the values were obtained:
[1] = target: T1, Adrenergic Receptor α2A (ADRA2A) (Homo sapiens, UniProt P08913); assay: cAMP assay, ADRA2A; type: cell-based
T1 sequence (P08913 1-465): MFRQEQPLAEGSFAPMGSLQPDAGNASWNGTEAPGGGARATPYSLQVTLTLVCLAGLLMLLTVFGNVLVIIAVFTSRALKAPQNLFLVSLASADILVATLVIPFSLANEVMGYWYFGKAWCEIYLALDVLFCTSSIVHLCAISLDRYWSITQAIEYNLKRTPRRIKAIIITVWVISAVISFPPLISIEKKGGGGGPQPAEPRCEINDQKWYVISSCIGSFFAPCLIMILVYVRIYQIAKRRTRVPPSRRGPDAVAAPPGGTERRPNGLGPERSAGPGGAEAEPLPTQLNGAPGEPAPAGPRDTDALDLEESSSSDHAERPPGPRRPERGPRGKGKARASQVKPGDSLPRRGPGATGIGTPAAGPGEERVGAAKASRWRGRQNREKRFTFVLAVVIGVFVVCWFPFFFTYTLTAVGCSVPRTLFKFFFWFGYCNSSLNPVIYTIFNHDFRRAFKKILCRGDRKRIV

[2] = target: T2, Endothelin Receptor Type A (EDNRA) (Homo sapiens, UniProt P25101); assay: Calcium flux assay, EDNRA; type: cell-based
T2 sequence (P25101 21-427): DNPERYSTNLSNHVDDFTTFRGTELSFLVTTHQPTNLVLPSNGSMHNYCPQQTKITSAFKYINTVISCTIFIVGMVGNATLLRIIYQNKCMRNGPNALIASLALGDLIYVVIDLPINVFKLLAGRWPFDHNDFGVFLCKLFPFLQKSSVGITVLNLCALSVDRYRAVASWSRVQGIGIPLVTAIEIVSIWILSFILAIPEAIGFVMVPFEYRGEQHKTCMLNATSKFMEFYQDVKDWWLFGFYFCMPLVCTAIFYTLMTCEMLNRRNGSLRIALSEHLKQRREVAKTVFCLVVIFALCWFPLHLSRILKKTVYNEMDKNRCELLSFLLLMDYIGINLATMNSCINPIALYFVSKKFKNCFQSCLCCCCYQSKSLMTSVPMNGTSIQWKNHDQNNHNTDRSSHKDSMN

[3] = target: Opioid Receptor Delta 1 (OPRD1) (Homo sapiens, UniProt P41143); assay: cAMP assay, OPRD1; type: cell-based
[4] = target: Adenosine Receptor A2A (ADORA2A) (Homo sapiens, UniProt P29274); assay: Calcium flux assay, ADORA2A; type: cell-based
[5] = target: T3, Nicotinic acetylcholine Receptor α4 β2 (nAChR(a4/b2)) (Homo sapiens, UniProt P17787+P43681); assay: cell-based
T3 construct: expressed in transfected cells

[6] = target: Histamine Receptor H2 (HRH2) (Homo sapiens, UniProt P25021); assay: cAMP assay, HRH2; type: cell-based
[7] = target: T4, 5-Hydroxytryptamine (Serotonin) Receptor 1A (5-HT1A) (Homo sapiens, UniProt P08908); assay: cAMP secondary messenger assay, 5-HT1A; type: cell-based
T4 sequence (P08908 1-422): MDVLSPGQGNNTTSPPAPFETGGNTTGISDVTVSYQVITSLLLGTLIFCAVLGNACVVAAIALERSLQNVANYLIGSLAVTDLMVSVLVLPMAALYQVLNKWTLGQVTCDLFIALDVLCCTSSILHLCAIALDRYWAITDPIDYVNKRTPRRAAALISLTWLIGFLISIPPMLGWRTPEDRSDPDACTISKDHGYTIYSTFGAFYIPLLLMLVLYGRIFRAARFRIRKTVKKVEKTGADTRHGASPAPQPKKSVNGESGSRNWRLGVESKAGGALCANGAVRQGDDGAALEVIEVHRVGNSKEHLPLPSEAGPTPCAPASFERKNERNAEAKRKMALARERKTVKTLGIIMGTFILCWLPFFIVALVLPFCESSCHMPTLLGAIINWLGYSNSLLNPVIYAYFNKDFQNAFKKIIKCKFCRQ

KvLQT1/minK = target: T5, KvLQT1/minK (Homo sapiens, UniProt P15382+P51787); assay: Ion channel assay, KvLQT1/minK; type: cell-based
T5 construct: expressed in transfected cells

[8] = target: Cannabinoid Receptor 1 (CNR1) (Homo sapiens, UniProt P21554); assay: cAMP assay, CNR1; type: cell-based
[9] = target: T6, Acetylcholinesterase (AChE) (Homo sapiens, UniProt P22303); assay: Enzymatic assay, AChE; type: biochemical
T6 construct: purchased R&D Systems

[10] = target: T7, Serotonin transporter (SERT) (Homo sapiens, UniProt P31645); assay: cell-based
T7 construct: expressed in transfected cells

[11] = target: T8, Rho Associated Coiled-Coil Containing Protein Kinase 1 (ROCK1) (Homo sapiens, UniProt Q13464); assay: KINOMEscan binding assay, ROCK1
T8 construct: made in house; host or cells: E. coli BL21-derived host (T7 phage) or HEK-293

[12] = target: T9, CAMP-specific 3′,5′-cyclic phospho-diesterase (PDE4D2) (Homo sapiens, UniProt Q08499); assay: Enzymatic assay, PDE4D2; type: biochemical
T9 construct: purchased Signal Chem

[13] = target: Dopamine Receptor D2 (DRD2S) (Homo sapiens, UniProt P14416); assay: cAMP assay, DRD2S; type: cell-based
[14] = target: T10, Dopamine transporter (DAT) (Homo sapiens, UniProt Q01959); assay: Monoamine transporter uptake assay (fluorescent substrate), DAT; type: cell-based
T10 construct: expressed in transfected cells

[15] = target: T11, Voltage-gated L-type calcium channel (CAV1.2) (Homo sapiens, UniProt Q13936); assay: Ion channel assay, CAV1.2; type: cell-based
T11 construct: expressed in transfected cells

Opioid Receptor Delta 1 (OPRD1), sequence (P41143 whole entry): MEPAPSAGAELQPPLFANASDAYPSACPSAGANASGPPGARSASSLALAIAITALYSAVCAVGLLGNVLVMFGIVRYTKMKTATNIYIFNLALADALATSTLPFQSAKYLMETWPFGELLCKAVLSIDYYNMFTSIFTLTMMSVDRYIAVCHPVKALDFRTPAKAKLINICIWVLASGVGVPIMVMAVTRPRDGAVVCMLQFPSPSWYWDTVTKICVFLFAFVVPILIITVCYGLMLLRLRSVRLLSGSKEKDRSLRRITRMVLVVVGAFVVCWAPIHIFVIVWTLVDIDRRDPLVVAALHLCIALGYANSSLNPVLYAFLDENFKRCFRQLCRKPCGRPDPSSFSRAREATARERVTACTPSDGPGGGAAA
T10 sequence (Q01959 whole entry): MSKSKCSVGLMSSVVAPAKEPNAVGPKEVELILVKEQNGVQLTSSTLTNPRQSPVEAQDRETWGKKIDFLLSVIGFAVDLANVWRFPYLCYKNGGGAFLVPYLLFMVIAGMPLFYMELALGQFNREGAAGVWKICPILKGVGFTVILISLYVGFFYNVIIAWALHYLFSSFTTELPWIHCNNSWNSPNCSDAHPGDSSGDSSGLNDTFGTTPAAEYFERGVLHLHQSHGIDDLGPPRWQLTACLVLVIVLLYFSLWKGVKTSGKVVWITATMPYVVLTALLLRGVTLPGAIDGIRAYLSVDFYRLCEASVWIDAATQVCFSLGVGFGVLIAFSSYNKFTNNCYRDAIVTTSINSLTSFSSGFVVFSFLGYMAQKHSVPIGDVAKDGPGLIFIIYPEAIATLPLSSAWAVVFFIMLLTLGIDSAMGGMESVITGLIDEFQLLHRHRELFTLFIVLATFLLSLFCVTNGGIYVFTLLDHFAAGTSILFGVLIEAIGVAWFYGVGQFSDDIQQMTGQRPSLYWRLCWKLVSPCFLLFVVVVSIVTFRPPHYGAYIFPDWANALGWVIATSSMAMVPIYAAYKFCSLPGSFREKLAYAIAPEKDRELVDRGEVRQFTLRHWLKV
T7 sequence (P31645 whole entry): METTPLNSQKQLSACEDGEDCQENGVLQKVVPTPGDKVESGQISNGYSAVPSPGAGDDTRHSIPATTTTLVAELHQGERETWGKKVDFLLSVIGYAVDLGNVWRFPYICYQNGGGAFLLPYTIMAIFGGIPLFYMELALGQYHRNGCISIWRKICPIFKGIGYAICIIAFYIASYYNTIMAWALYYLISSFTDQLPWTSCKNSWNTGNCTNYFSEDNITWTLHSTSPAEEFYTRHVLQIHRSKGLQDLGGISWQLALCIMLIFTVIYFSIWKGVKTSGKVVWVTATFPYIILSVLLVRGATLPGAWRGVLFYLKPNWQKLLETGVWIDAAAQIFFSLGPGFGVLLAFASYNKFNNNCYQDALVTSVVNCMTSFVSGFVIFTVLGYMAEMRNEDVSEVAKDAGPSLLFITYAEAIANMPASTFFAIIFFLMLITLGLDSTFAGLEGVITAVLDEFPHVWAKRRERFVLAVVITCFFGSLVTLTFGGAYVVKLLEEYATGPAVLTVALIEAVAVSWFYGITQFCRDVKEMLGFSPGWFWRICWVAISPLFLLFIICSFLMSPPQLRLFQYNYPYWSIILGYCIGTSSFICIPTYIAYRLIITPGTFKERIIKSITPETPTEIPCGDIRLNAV
T3 sequence (P43681 29-627 limits assumed): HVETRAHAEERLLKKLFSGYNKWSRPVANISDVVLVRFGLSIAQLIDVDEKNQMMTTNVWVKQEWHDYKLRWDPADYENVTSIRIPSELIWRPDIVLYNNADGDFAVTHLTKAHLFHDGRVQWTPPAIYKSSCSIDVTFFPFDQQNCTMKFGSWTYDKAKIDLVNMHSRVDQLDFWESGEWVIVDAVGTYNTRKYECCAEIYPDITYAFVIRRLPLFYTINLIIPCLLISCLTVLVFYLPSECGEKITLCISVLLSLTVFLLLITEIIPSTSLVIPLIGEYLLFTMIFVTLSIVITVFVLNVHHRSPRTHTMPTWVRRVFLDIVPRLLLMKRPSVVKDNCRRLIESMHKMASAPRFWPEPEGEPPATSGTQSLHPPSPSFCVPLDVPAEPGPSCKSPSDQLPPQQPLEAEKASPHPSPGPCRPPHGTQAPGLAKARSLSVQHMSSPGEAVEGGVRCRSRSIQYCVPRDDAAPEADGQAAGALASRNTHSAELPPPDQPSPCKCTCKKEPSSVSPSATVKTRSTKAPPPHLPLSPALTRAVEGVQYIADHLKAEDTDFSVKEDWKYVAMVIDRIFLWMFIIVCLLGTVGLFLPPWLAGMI
T3 sequence (P17787 26-502): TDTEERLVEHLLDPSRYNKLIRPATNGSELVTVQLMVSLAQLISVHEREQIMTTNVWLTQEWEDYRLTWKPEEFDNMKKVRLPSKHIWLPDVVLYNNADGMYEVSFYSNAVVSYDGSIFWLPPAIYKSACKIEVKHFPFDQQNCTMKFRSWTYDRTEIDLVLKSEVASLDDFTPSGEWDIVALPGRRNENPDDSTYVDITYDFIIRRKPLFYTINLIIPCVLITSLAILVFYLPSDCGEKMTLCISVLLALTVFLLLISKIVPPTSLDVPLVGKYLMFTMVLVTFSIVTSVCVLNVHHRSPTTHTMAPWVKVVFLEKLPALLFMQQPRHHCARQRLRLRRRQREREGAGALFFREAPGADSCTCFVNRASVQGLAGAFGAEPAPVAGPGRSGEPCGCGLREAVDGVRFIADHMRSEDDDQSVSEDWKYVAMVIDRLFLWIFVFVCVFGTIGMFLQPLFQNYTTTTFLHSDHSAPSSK
Adenosine Receptor A2A (ADORA2A), sequence (P29274 whole entry): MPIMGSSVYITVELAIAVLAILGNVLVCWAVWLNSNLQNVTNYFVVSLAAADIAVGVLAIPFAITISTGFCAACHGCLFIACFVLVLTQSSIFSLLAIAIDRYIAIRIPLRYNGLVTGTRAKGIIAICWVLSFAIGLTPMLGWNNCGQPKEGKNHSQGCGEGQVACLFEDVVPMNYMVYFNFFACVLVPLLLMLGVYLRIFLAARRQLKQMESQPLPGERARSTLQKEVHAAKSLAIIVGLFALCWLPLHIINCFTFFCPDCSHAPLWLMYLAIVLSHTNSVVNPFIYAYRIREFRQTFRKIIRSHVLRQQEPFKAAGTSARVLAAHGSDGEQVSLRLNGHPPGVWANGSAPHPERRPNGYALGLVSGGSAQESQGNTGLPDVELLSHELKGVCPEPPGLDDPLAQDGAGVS
Histamine Receptor H2 (HRH2), sequence (P25021 whole entry): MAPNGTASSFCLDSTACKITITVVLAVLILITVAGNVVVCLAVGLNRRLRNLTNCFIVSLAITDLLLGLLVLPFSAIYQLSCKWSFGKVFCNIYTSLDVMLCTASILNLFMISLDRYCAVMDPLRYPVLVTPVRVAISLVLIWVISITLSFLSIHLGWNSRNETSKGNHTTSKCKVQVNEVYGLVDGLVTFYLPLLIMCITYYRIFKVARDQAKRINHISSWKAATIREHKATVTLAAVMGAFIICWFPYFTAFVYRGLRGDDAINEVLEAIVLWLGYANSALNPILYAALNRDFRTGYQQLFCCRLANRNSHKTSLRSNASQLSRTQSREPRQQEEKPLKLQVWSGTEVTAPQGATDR
Dopamine Receptor D2 (DRD2S), sequence (P14416 1-414 isoform P14416-2): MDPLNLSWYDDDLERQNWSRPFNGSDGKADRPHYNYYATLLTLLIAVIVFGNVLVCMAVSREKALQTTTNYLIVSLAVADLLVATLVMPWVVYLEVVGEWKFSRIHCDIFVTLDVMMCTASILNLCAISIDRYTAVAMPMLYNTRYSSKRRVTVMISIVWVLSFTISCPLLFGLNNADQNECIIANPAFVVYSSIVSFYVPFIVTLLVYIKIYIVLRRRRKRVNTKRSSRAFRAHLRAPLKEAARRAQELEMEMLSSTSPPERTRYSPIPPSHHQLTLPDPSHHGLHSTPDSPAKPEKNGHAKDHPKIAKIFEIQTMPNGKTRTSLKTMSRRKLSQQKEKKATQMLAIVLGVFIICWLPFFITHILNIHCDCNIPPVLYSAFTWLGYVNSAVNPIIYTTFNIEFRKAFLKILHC
T5 sequence (P51787 whole entry): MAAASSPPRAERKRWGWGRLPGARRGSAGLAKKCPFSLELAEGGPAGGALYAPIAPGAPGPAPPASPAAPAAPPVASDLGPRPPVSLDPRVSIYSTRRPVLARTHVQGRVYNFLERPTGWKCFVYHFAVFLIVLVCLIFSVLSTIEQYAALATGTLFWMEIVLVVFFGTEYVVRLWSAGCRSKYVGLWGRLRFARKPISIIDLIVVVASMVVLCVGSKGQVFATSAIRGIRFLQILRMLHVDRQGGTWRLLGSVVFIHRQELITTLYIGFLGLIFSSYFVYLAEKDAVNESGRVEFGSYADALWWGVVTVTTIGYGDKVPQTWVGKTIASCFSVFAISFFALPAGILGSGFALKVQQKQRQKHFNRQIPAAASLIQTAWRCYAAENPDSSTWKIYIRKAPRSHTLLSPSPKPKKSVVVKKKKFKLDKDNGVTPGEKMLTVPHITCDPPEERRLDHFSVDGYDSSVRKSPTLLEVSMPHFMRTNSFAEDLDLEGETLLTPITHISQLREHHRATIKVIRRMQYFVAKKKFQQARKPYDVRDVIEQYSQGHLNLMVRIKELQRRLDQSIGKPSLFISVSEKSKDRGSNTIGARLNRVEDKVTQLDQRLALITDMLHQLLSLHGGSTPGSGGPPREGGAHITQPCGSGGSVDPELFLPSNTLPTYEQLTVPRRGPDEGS

Compound | EC50 [1] [µM] | IC50 [1] [µM] | EC50 [2] [µM] | IC50 [2] [µM] | EC50 [3] [µM] | IC50 [3] [µM] | EC50 [4] [µM] | IC50 [4] [µM] | EC50 [5] [µM] | IC50 [5] [µM] | EC50 [6] [µM] | IC50 [6] [µM] | EC50 [7] [µM] | IC50 [7] [µM] | EC50 (KvLQT1/minK) [µM] | IC50 (KvLQT1/minK) [µM] | EC50 [8] [µM] | IC50 [8] [µM] | IC50 [9] [µM] | IC50 [10] [µM] | also measured
CNC(C)C(=O)c1c[nH]c2ccc(Br)cc12 (stereo not drawn) [BK-5Br-NM-AMT, 1-(5-bromo-1H-indol-3-yl)-2-(methylamino) propan-1-one hydrochloride] | > 10 | > 10 | > 10 | > 10 | > 10 | > 10 | > 10 | > 10 | > 10 | > 10 | > 10 | > 10 | > 10 | > 10 | > 10 | > 10 | > 10 | > 10 | > 10 | > 10 | IC50 [11]: > 10 µM; IC50 [12]: > 10 µM; EC50 [13]: > 10 µM; IC50 [13]: 4.26 µM; IC50 [14]: 4.24 µM; IC50 [15]: > 10 µM
CNC(C)C(=O)c1c[nH]c2ccc(Cl)cc12 (stereo not drawn) [BK-5Cl-NM-AMT, 1-(5-chloro-1H-indol-3-yl)-2-(methylamino) propan-1-one hydrochloride] | > 10 | > 10 | > 10 | > 10 | > 10 | > 10 | > 10 | > 10 | > 10 | > 10 | > 10 | > 10 | > 10 | > 10 | > 10 | > 10 | > 10 | > 10 | > 10 | > 10 | IC50 [11]: > 10 µM; IC50 [12]: > 10 µM; EC50 [13]: > 10 µM; IC50 [13]: 6.22 µM; IC50 [14]: 6.08 µM; IC50 [15]: > 10 µM
CNC(C)C(=O)c1c[nH]c2ccc(F)cc12 (stereo not drawn) [BK-5F-NM-AMT, 1-(5-Fluoro-1H-indol-3-yl)-2-(methylamino) propan-1-one hydrochloride] | > 10 | > 10 | > 10 | > 10 | > 10 | > 10 | > 10 | > 10 | > 10 | > 10 | > 10 | > 10 | > 10 | > 10 | > 10 | > 10 | > 10 | > 10 | > 10 | > 10 | IC50 [11]: > 10 µM; IC50 [12]: > 10 µM; EC50 [13]: > 10 µM; IC50 [13]: 5.2 µM; IC50 [14]: > 10 µM; IC50 [15]: > 10 µM
